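1) Cells in 96-well plates. 2) Compound, 48 h, 5 concentrations. 3) Linear interpolation between surrounding doses. 4) Unreached endpoint = highest concentration. GI50 is the concentration that inhibits growth by half.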 Activity calls are given as the source filed them. No stated cut-off is given here; in the data, active = GI50 up to about 1.1 µM and inactive = higher.
Experiments:
Test in all cases: NCI anticancer screen, dose series, 48 h
[1] = tested on: RPMI-8226
[2] = tested on: SF-295
[3] = tested on: ACHN
[4] = tested on: NCI-H522
[5] = tested on: HCT-116
[6] = tested on: M19-MEL
[7] = tested on: SF-268
[8] = tested on: UACC-62
[9] = tested on: CCRF-CEM
[10] = tested on: KM12
[11] = tested on: HL-60
[12] = tested on: SNB-19
[13] = tested on: UO-31
[14] = tested on: IGROV-1
[15] = tested on: SK-OV-3
[16] = tested on: U-251
[17] = tested on: UACC-257
[18] = tested on: OVCAR-8
[19] = tested on: SN12C
[20] = tested on: HOP-92
[21] = tested on: HCC 2998
[22] = tested on: NCI-H460
[23] = tested on: TK-10
[24] = tested on: SNB-78
[25] = tested on: A549
[26] = tested on: DMS-114
[27] = tested on: HOP-62
[28] = tested on: EKVX
[29] = tested on: OVCAR-5
[30] = tested on: SK-MEL-5
[31] = tested on: HOP-18
[32] = tested on: M14
[33] = tested on: 786-0
[34] = tested on: MOLT-4
[35] = tested on: SF-539
[36] = tested on: CAKI-1
[37] = tested on: DLD-1
[38] = tested on: K562
[39] = tested on: COLO 205
[40] = tested on: A498
[41] = tested on: Malme-3M
[42] = tested on: KM-20L2
[43] = tested on: XF498
[44] = tested on: NCI-H23
[45] = tested on: LXFL 529
[46] = tested on: DMS-273
[47] = tested on: RXF 393
[48] = tested on: SK-MEL-28
[49] = tested on: NCI-H226
[50] = tested on: SK-MEL-2
[51] = tested on: HCT-15
[52] = tested on: SW-620
[53] = tested on: SNB-75
[54] = tested on: HT-29
[55] = tested on: OVCAR-4
[56] = tested on: MCF7
[57] = tested on: OVCAR-3
[58] = tested on: LOX IMVI
[59] = tested on: NCI/ADR-RES
[60] = tested on: SR
[61] = tested on: RXF 631

COc1cc(CCCC(O)COc2cccc3c2C2(O)CCCCCC32)cc(OC)c1 (stereo not given)
GI50 [1]: 18.5 µM (inactive) | GI50 [2]: 16.5 µM (inactive) | GI50 [3]: 15.7 µM (inactive) | GI50 [4]: 24.9 µM (inactive) | GI50 [5]: 17.7 µM (inactive) | GI50 [6]: 17 µM (inactive) | GI50 [7]: 17.9 µM (inactive) | GI50 [8]: 16.4 µM (inactive) | GI50 [9]: 25.8 µM (inactive) | GI50 [10]: 17.2 µM (inactive) | GI50 [11]: 22.2 µM (inactive) | GI50 [12]: 17.8 µM (inactive) | GI50 [13]: 15.4 µM (inactive) | GI50 [14]: 15.2 µM (inactive) | GI50 [15]: 23.1 µM (inactive) | GI50 [16]: 18.9 µM (inactive) | GI50 [17]: 15.6 µM (inactive) | GI50 [18]: 19.1 µM (inactive) | GI50 [19]: 17.2 µM (inactive) | GI50 [20]: 4.75 µM (inactive) | GI50 [21]: 4.97 µM (inactive) | GI50 [22]: 17.6 µM (inactive) | GI50 [23]: 14.1 µM (inactive) | GI50 [24]: 20.7 µM (inactive) | GI50 [25]: 16.1 µM (inactive) | GI50 [26]: 11.4 µM (inactive) | GI50 [27]: 15 µM (inactive) | GI50 [28]: 16 µM (inactive) | GI50 [29]: 15.4 µM (inactive) | GI50 [30]: 7.85 µM (inactive) | GI50 [31]: 16 µM (inactive) | GI50 [32]: 17.5 µM (inactive) | GI50 [33]: 15.1 µM (inactive) | GI50 [34]: 17.7 µM (inactive) | GI50 [35]: 13.4 µM (inactive) | GI50 [36]: 20.8 µM (inactive) | GI50 [37]: 20.1 µM (inactive) | GI50 [38]: 11.6 µM (inactive) | GI50 [39]: 2.53 µM (inactive) | GI50 [40]: 19.9 µM (inactive) | GI50 [41]: 16 µM (inactive) | GI50 [42]: 14.1 µM (inactive) | GI50 [43]: 19.9 µM (inactive) | GI50 [44]: 16.9 µM (inactive) | GI50 [45]: 16.5 µM (inactive) | GI50 [46]: 20.5 µM (inactive) | GI50 [47]: 24.8 µM (inactive) | GI50 [48]: 17 µM (inactive) | GI50 [49]: 16.2 µM (inactive) | GI50 [50]: 20.7 µM (inactive) | GI50 [51]: 17.6 µM | GI50 [52]: 17.2 µM (inactive) | GI50 [53]: 12.1 µM (inactive) | GI50 [54]: 7.26 µM (inactive) | GI50 [55]: 18.2 µM (inactive)

CC1(CO)C(O)CCC2(C)C1C(O)CC1CC3CC12CCC3(O)CO (stereo not given)
GI50 [1]: > 158 µM (inactive) | GI50 [2]: 91.2 µM (inactive) | GI50 [4]: > 225 µM (inactive) | GI50 [5]: > 217 µM (inactive) | GI50 [56]: > 217 µM (inactive) | GI50 [6]: > 153 µM (inactive) | GI50 [7]: > 191 µM (inactive) | GI50 [8]: > 225 µM (inactive) | GI50 [9]: 138 µM (inactive) | GI50 [10]: > 225 µM (inactive) | GI50 [11]: 102 µM (inactive) | GI50 [12]: > 225 µM (inactive) | GI50 [13]: > 217 µM (inactive) | GI50 [14]: > 225 µM (inactive) | GI50 [15]: > 225 µM (inactive) | GI50 [16]: > 225 µM (inactive) | GI50 [17]: > 225 µM (inactive) | GI50 [18]: > 213 µM (inactive) | GI50 [19]: > 225 µM (inactive) | GI50 [57]: > 225 µM (inactive) | GI50 [20]: > 225 µM (inactive) | GI50 [21]: > 225 µM (inactive) | GI50 [22]: 77.1 µM (inactive) | GI50 [24]: > 225 µM (inactive) | GI50 [25]: > 225 µM (inactive) | GI50 [26]: > 225 µM (inactive) | GI50 [27]: > 225 µM (inactive) | GI50 [58]: > 225 µM (inactive) | GI50 [28]: > 205 µM (inactive) | GI50 [29]: > 225 µM (inactive) | GI50 [30]: > 225 µM (inactive) | GI50 [31]: > 225 µM (inactive) | GI50 [34]: > 96.6 µM (inactive) | GI50 [35]: > 225 µM (inactive) | GI50 [36]: > 225 µM (inactive) | GI50 [37]: > 225 µM (inactive) | GI50 [38]: > 225 µM (inactive) | GI50 [39]: > 225 µM (inactive) | GI50 [59]: > 225 µM (inactive) | GI50 [40]: > 225 µM (inactive) | GI50 [41]: > 225 µM (inactive) | GI50 [42]: > 225 µM (inactive) | GI50 [43]: 29.6 µM (inactive) | GI50 [44]: > 225 µM (inactive) | GI50 [46]: 104 µM (inactive) | GI50 [47]: > 225 µM (inactive) | GI50 [48]: > 225 µM (inactive) | GI50 [49]: 116 µM (inactive) | GI50 [50]: > 225 µM (inactive) | GI50 [51]: > 225 µM | GI50 [52]: > 225 µM (inactive) | GI50 [53]: > 189 µM (inactive) | GI50 [54]: > 225 µM (inactive) | GI50 [55]: > 225 µM (inactive)

C[C@H]1C(=O)c2c(cc(O)c(C3OC(CO)C(O)C(O)C3O)c2O)OC1c1ccc(O)c(O)c1 (stereo not given in full)
GI50 [60]: > 100 µM (inactive) | GI50 [2]: > 100 µM (inactive) | GI50 [3]: > 100 µM (inactive) | GI50 [4]: > 100 µM (inactive) | GI50 [5]: > 100 µM (inactive) | GI50 [6]: > 100 µM (inactive) | GI50 [8]: > 100 µM (inactive) | GI50 [9]: > 100 µM (inactive) | GI50 [10]: > 100 µM (inactive) | GI50 [11]: > 100 µM (inactive) | GI50 [12]: > 100 µM (inactive) | GI50 [13]: > 100 µM (inactive) | GI50 [14]: > 100 µM (inactive) | GI50 [15]: > 100 µM (inactive) | GI50 [16]: > 100 µM (inactive) | GI50 [17]: > 100 µM (inactive) | GI50 [18]: > 100 µM (inactive) | GI50 [61]: > 100 µM (inactive) | GI50 [20]: > 100 µM (inactive) | GI50 [22]: > 100 µM (inactive) | GI50 [23]: > 100 µM (inactive) | GI50 [24]: > 100 µM (inactive) | GI50 [25]: > 100 µM (inactive) | GI50 [26]: > 100 µM (inactive) | GI50 [27]: > 100 µM (inactive) | GI50 [28]: > 100 µM (inactive) | GI50 [29]: > 100 µM (inactive) | GI50 [32]: > 100 µM (inactive) | GI50 [34]: > 100 µM (inactive) | GI50 [38]: > 10 µM (inactive) | GI50 [40]: > 100 µM (inactive) | GI50 [44]: > 100 µM (inactive) | GI50 [47]: > 100 µM (inactive) | GI50 [48]: > 100 µM (inactive) | GI50 [49]: 64.9 µM (inactive) | GI50 [54]: > 100 µM (inactive)

Source: ChEMBL document CHEMBL1201862, “PubChem BioAssay data set” (2004)
